Measurements taken from patent US20050075361A1 (priority 2002, published 2005).
Where two headings read alike, the source gives them in different places.

Assays:
male Sprague-Dawley rats = conditions: rat, in vivo
[1] = cited from earlier work
[2] = parenteral, weight basis; cited from earlier work
[3] = cited from earlier work; remark: listed apart in the source
[4] = intravenous, single dose of about 0.3 mg

Compound | Analgesic duration (male Sprague-Dawley rats) | duration of analgesic action (male Sprague-Dawley rats) [h] | mean duration of analgesia ([1]; single intramuscular or intravenous dose of 0.2 to 0.3 mg or 2 to 4 μg/kg) | Analgesic duration (male Sprague-Dawley rats; sc) | duration of action (male Sprague-Dawley rats; sc) [h] | analgesic potency relative to meperidine [2] | analgesic potency relative to pentazocine [2] | duration of action ([1]; intramuscular or intravenous injection) [h] | Cmax ([3]; 0.4 mg sublingual dose) [ng/mL] | Tmax ([3]; 0.4 mg sublingual dose) [h] | systemic availability ([3]; 0.4 mg sublingual dose) [%] | Total plasma clearance ([3]; conscious postoperative patients) | mean peak plasma buprenorphine concentration ([3]; intramuscular second 0.3-mg dose 3 hours after initial intravenous dose) | plasma concentration ([3]; intramuscular second 0.3-mg dose, after about 3 hours) | plasma concentration ([3]; intravenous about 0.3 mg, after about 5 minutes) | plasma concentration ([3]; intravenous about 0.3 mg, after about 3 hours) | mean peak plasma drug concentration [3, 4] | time of peak plasma concentration [3, 4] [min]
CO[C@@]12CC[C@@]3(C[C@@H]1[C@](C)(O)C(C)(C)C)[C@H]1Cc4ccc(O)c5c4[C@@]3(CCN1CC1CC1)[C@H]2O5.Cl [Buprenorphine HCl, buprenorphine hydrochloride] | 5 h | 3 to 5 | six |  |  |  |  |  |  |  |  |  |  |  |  |  |  | 
CO[C@@]12CCC3(C[C@@H]1C(C)(O)C(C)(C)C)[C@H]1Cc4ccc(O)c5c4[C@@]3(CCN1CC1CC1)[C@H]2O5 (stereo partly drawn) [Buprenorphine base, (5α,7α(S)-17-cyclopropyl-methyl)-α-(1,1-dimethylethyl)-4,5-epoxy-18,19-dihydro-3-hydroxy-6-methoxy-α-methyl-6,14-ethenomorphinan-7-methanol] | 48; 48; 50 h | 48 to 50 |  | 48; 50; 48 h | 48 to 50 |  |  |  |  |  |  |  |  |  |  |  |  | 
CO[C@@]12CCC3(C[C@@H]1C(C)(O)C(C)(C)C)[C@H]1Cc4ccc(O)c5c4[C@@]3(CCN1CC1CC1)[C@H]2O5 (stereo partly drawn) [Buprenorphine, (5α,7α(S)-17-cyclopropyl-methyl)-α-(1,1-dimethylethyl)-4,5-epoxy-18,19-dihydro-3-hydroxy-6-methoxy-α-methyl-6,14-ethenomorphinan-7-methanol] |  |  |  |  |  | about 600 times | about 200 times | 6 to 8 | 0.5 ± 0.06 | 3.5 ± 0.667 | 57.7±6 | approximately 0.28 L/minute | about 3.6 ng/mL | about 0.4 ng/mL | about 9 ng/mL | about 0.4 ng/mL | about 18 ng/mL | ≤ 2
